ChEMBL document CHEMBL2407058, “Design, Synthesis, and Antiplasmodial Activity of Hybrid Compounds Based on (2R,3S)-N-Benzoyl-3-phenylisoserine” (ACS Med Chem Lett, 2013)

Experiments:
Plasmodium falciparum [1] = assay: Antiplasmodial activity against erythrocytic stage of chloroquine-resistant Plasmodium falciparum IndoChina W2 infected in human A positive RBC after 48 hrs by [3H]hypoxanthine incorporation assay; format: functional, organism-based
Plasmodium falciparum [2] = assay: Antiplasmodial activity against erythrocytic stage of multidrug-resistant Plasmodium falciparum Thailand K1 infected in human A positive RBC after 48 hrs by [3H]hypoxanthine incorporation assay; format: functional, organism-based
L6 = assay: Cytotoxicity against rat L6 cells after 70 hrs by Alamar Blue assay; format: cell-based; settings: L6, 70 h
[3] = Selectivity index, ratio of IC50 for rat L6 cells to IC50 for erythrocytic stage of chloroquine-resistant Plasmodium falciparum IndoChina W2; format: toxicity, cell-based; settings: read-out: Ratio IC50
Plasmodium falciparum [4] = assay: Ratio of dihydroartemisinin IC50 to compound IC50 for erythrocytic stage of chloroquine-resistant Plasmodium falciparum IndoChina W2; format: functional

Molecule `C[C@@H]1CC[C@H]2[C@@H](C)C(=O)O[C@@H]3O[C@@]4(C)CC[C@@H]1[C@]32OO4` [ARTEMISININ] has an IC50 (Plasmodium falciparum [1]) of 15 nM and an IC50 (Plasmodium falciparum [2]) of 3.2 nM.
`O=C(N[C@@H](c1ccccc1)[C@@H](O)C(=O)O)c1ccccc1` showed an IC50 (Plasmodium falciparum [1]) greater than 10000 nM, an IC50 (L6) greater than 100000 nM and an IC50 (Plasmodium falciparum [2]) greater than 10000 nM.
For `C[C@H]1[C@@H](O)O[C@@H]2O[C@@]3(C)CC[C@H]4[C@H](C)CC[C@@H]1[C@@]24OO3` (mixture of isomers) [ARTENIMOL], the selectivity ratio [3] was 243, the IC50 (Plasmodium falciparum [1]) was 3 nM and the IC50 (L6) was 730 nM. For the same molecule, the IC50 (Plasmodium falciparum [2]) was 1.8 nM.
`O=C(N[C@@H](c1ccccc1)[C@@H](O)C(=O)NCc1cn(CCNc2ccnc3cc(Cl)ccc23)nn1)c1ccccc1` gave a selectivity ratio [3] of 31.6, an IC50 (Plasmodium falciparum [1]) of 2710 nM and an IC50 (L6) of 85600 nM. For the same molecule, the IC50 (Plasmodium falciparum [2]) was 1110 nM.
Molecule `O=C(N[C@@H](c1ccccc1)[C@@H](O)C(=O)NCCNc1ccnc2cc(Cl)ccc12)c1ccccc1` has a selectivity ratio [3] of 27, an IC50 (Plasmodium falciparum [1]) of 560 nM and an IC50 (L6) of 15100 nM. For the same molecule, the IC50 (Plasmodium falciparum [2]) was 360 nM.
Work on `O=C(N[C@@H](c1ccccc1)[C@@H](O)C(=O)NCc1cn(CCCNc2ccnc3cc(Cl)ccc23)nn1)c1ccccc1` yielded a selectivity ratio [3] of 52.2, an IC50 (Plasmodium falciparum [1]) of 1690 nM and an IC50 (L6) of 88200 nM. The IC50 (Plasmodium falciparum [2]) was 390 nM.
With `OCc1ccccc1Nc1ccnc2cc(Cl)ccc12` the IC50 (Plasmodium falciparum [1]) was 40 nM.
Molecule `O=C(N[C@@H](c1ccccc1)[C@@H](O)C(=O)NCCCNc1ccnc2cc(Cl)ccc12)c1ccccc1` has a selectivity ratio [3] of 59, an IC50 (Plasmodium falciparum [1]) of 480 nM and an IC50 (L6) of 28300 nM. The IC50 (Plasmodium falciparum [2]) was 1000 nM.
`CC(=O)O[C@@H](C(=O)O)[C@@H](NC(=O)c1ccccc1)c1ccccc1` showed an IC50 (Plasmodium falciparum [1]) greater than 10000 nM, an IC50 (L6) greater than 100000 nM and an IC50 (Plasmodium falciparum [2]) greater than 10000 nM.
With `CC(=O)O[C@@H](C(=O)O[C@@H]1O[C@@H]2O[C@@]3(C)CC[C@H]4[C@H](C)CC[C@@H]([C@H]1C)[C@@]24OO3)[C@@H](NC(=O)c1ccccc1)c1ccccc1` the selectivity ratio [3] was 166, the “Ratio IC50” value (Plasmodium falciparum [4]) was 3 and the IC50 (Plasmodium falciparum [1]) was 5 nM. For the same molecule, the IC50 (L6) was 830 nM and the IC50 (Plasmodium falciparum [2]) was 0.5 nM.
For `OCc1cccc(Nc2ccnc3cc(Cl)ccc23)c1`, the selectivity ratio [3] was 70.4, the IC50 (Plasmodium falciparum [1]) was 300 nM and the IC50 (L6) was 21100 nM. The IC50 (Plasmodium falciparum [2]) was 300 nM.
`OCCNc1ccnc2cc(Cl)ccc12` gave an IC50 (Plasmodium falciparum [1]) of 550 nM.
Work on `[N-]=[N+]=NCc1ccccc1Nc1ccnc2cc(Cl)ccc12` yielded an IC50 (Plasmodium falciparum [1]) of 220 nM.
In the case of `C[C@H]1[C@H](OC(=O)[C@H](O)[C@@H](NC(=O)c2ccccc2)c2ccccc2)O[C@@H]2O[C@@]3(C)CC[C@H]4[C@H](C)CC[C@@H]1[C@@]24OO3`, the selectivity ratio [3] is reported as 206, the “Ratio IC50” value (Plasmodium falciparum [4]) is reported as 3 and the IC50 (Plasmodium falciparum [1]) is reported as 5 nM. The IC50 (L6) was 1030 nM and the IC50 (Plasmodium falciparum [2]) was 0.7 nM.
For `O=C(N[C@@H](c1ccccc1)[C@@H](O)C(=O)NCc1cn(Cc2ccccc2Nc2ccnc3cc(Cl)ccc23)nn1)c1ccccc1`, the selectivity ratio [3] was 28.6, the IC50 (Plasmodium falciparum [1]) was 1050 nM and the IC50 (L6) was 30100 nM. The IC50 (Plasmodium falciparum [2]) was 3240 nM.
For `O=C(N[C@@H](c1ccccc1)[C@@H](O)C(=O)OCCNc1ccnc2cc(Cl)ccc12)c1ccccc1`, the IC50 (Plasmodium falciparum [1]) was 390 nM.
For `[N-]=[N+]=NCCNc1ccnc2cc(Cl)ccc12`, the IC50 (Plasmodium falciparum [1]) was 290 nM.
`O=C(N[C@@H](c1ccccc1)[C@@H](O)C(=O)OCCCNc1ccnc2cc(Cl)ccc12)c1ccccc1` gave an IC50 (Plasmodium falciparum [1]) of 130 nM.
`OCCCNc1ccnc2cc(Cl)ccc12` gave an IC50 (Plasmodium falciparum [1]) of 410 nM.
With `COc1cc([C@@H]2c3cc4c(cc3[C@H](O)[C@H]3COC(=O)[C@H]23)OCO4)cc(OC)c1OC` [PODOFILOX] the IC50 (L6) was 20 nM.
Work on `O=C(N[C@@H](c1ccccc1)[C@@H](O)C(=O)NCc1cn(Cc2cccc(Nc3ccnc4cc(Cl)ccc34)c2)nn1)c1ccccc1` yielded a selectivity ratio [3] of 242, an IC50 (Plasmodium falciparum [1]) of 280 nM and an IC50 (L6) of 67900 nM. It also gave an IC50 (Plasmodium falciparum [2]) of 2440 nM.
Molecule `CC(=O)O[C@@H](C(=O)OCCNc1ccnc2cc(Cl)ccc12)[C@@H](NC(=O)c1ccccc1)c1ccccc1` has a selectivity ratio [3] of 114, an IC50 (Plasmodium falciparum [1]) of 220 nM and an IC50 (L6) of 25200 nM. The IC50 (Plasmodium falciparum [2]) was 250 nM.
`CC(=O)O[C@@H](C(=O)OCCCNc1ccnc2cc(Cl)ccc12)[C@@H](NC(=O)c1ccccc1)c1ccccc1` gave a selectivity ratio [3] of 151, an IC50 (Plasmodium falciparum [1]) of 160 nM and an IC50 (L6) of 24200 nM. For the same molecule, the IC50 (Plasmodium falciparum [2]) was 220 nM.
`[N-]=[N+]=NCc1cccc(Nc2ccnc3cc(Cl)ccc23)c1` gave a selectivity ratio [3] of 139, an IC50 (Plasmodium falciparum [1]) of 550 nM and an IC50 (L6) of 76600 nM. For the same molecule, the IC50 (Plasmodium falciparum [2]) was 1110 nM.
`[N-]=[N+]=NCCCNc1ccnc2cc(Cl)ccc12` gave a selectivity ratio [3] of 55.8, an IC50 (Plasmodium falciparum [1]) of 170 nM and an IC50 (L6) of 9480 nM. For the same molecule, the IC50 (Plasmodium falciparum [2]) was 330 nM.
